Like-named read-outs stand apart in the source and are kept apart here.
How the values were obtained:
[1] = biological target: T1, human neurokinin 1 (NK1) receptor (Homo sapiens, UniProt P25103); experiment: Neurokinin receptor binding assay, NK1 ([3H]-Substance P); details: for inhibition at 1 µM: read-out: % Inhibition NK1 (1 μM dose)
T1 construct: expressed in transfected cells; host or cells: Chinese hamster ovary (CHO) cells, membranes
Experimental: (§1) Chinese Hamster ovary (CHO) cells transfected with the coding regions for the human neurokinin 1 (NK1) of the human neurokinin 2 (NK2) receptors are grown in Dulbecco's minimal essential medium supplemented with 10% fetal calf serum, 0.1 mM non-essential amino acids, 2 mM glutamine, 100 units/ml of penicillin and streptomycin, and 0.8 mg of G418/ml at 37° C. in a humidified atmosphere containing 5% CO2.
(§2) Cells are detached from T-175 flasks with a sterile solution containing 5 mM EDTA in phosphate buffered saline. Cells are harvested by centrifugation and washed in RPMI media at […] for 5 minutes. The pellet is resuspended in Tris-HCl (pH7.4) containing 1 μM phsphoramidon and 4 ug/ml of chymostatin at a cell density of 30×10^6 cells/ml. The suspension is then homogenized in a Brinkman Polytron (setting 5) for 30-45 seconds. The homogenate is centrifuged at 800×g for 5 min at 4° C. to collect unbroken cells and nuclei. The supernatant is centrifuged in a Sorvall RC5C at 19,000 rpm ([…]) for 30 min at 4° C. The pellet is resuspended, an aliquot is removed for a protein determination (BCA) and washed again. The resulting pellet is stored at -80° C.
(§3) To assay receptor binding, 50 μl of [^3 H]-Substance P (9-Sar, 11-Met) (specific activity 41 Ci/mmol) (Dupont-NEN) (0.8 nM for the NK-1 assay) or [^3 H]-Neurokinin A (specific activity 114 Ci/mmole) (Zenca) (1.0 nM for the NK-2 assay) is added to tubes containing buffer (50 mM Tris-HCl (pH 7.4) with 1 mM MnCl2 and 0.2% Bovine Serum Albumin) and either DMSO or test compound. Binding is initiated by the addition of 100 μl of membrane (10-20 μg) containing the human NK-1 or NK-2 receptor in a final volume of 200 μl. After 40 minutes at room temperature, the reaction is stopped by rapid filtration onto Whatman GF/C filters which have been presoaked in 0.3% polyethyleneimine. Filters are washed 2 times with 3 ml of 50 mM Tris-HCl (pH7.4). Filters are added to 6 mls of Ready-Safe liquid scintillation cocktail and quantified by liquid scintillation spectrometry in a LKB 1219 RackBeta counter. Non-specific binding is determined by the addition of either 1 μM of CP-99994 (NK-1) or 1 μM SR-48968 (NK-2) (both synthesized by the chemistry department of Schering-Plough Research Institute). IC50 values are determined from competition binding curves and Ki values are determined according to Cheng and Prusoff using the experimentally determined value of 0.8 nM for the NK-1 receptor and 2.4 nM for the NK-2 receptor.
(§4) % Inhibition is the difference between the percent of maximum specific binding (MSB) and 100%. The percent of MSB is defined by the following equation, wherein "dpm" is disintegrations per minute: [formula]

[2] = biological target: T2, human neurokinin 2 (NK2) receptor (Homo sapiens, UniProt P21452); experiment: Neurokinin receptor binding assay, NK2 ([3H]-Neurokinin A); details: for inhibition at 1 µM: read-out: % Inhibition NK2 (1 μM dose)
T2 construct: expressed in transfected cells; host or cells: Chinese hamster ovary (CHO) cells, membranes
T2 sequence (P21452 1-398): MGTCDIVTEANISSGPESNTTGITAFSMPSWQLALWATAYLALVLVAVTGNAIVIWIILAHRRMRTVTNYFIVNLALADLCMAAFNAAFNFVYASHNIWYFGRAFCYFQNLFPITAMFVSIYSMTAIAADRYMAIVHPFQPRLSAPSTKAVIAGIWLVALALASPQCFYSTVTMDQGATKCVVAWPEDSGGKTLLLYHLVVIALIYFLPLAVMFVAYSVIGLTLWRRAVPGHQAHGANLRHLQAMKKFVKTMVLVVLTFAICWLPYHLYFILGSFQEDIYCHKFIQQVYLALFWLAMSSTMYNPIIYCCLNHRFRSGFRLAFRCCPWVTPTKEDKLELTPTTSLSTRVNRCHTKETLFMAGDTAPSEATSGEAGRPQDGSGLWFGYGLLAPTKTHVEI
Experimental: as §1, §2, §3, §4

[3] = CHO membranes, human NK-1 receptor, [3H]-Substance P 0.8 nM, Cheng-Prusoff, read-out: Ki (NK1)
[4] = CHO membranes, human NK-2 receptor, [3H]-Neurokinin A 1.0 nM, Cheng-Prusoff, read-out: Ki (NK2)

T1 sequence (P25103 whole entry): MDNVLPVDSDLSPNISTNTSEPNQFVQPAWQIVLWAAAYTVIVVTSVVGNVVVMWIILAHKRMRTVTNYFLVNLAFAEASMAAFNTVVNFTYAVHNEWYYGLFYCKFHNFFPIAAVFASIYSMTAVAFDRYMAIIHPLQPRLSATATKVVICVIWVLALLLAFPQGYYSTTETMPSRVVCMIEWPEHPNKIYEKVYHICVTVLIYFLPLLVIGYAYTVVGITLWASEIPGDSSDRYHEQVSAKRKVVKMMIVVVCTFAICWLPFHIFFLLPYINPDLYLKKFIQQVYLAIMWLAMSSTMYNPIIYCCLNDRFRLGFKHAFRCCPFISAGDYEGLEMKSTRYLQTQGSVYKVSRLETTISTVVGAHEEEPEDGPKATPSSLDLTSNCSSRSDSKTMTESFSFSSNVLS

| Ki [1, 3] | Ki [2, 4] | Structure (SMILES) | Ki [1] | inhibition at 1 µM [1] | Ki [2] | inhibition at 1 µM [2] |
| --- | --- | --- | --- | --- | --- | --- |
| – | – | CN(CCc1c[nH]c2ccccc12)CCC1(c2ccc(Cl)c(Cl)c2)CCN(C(=O)c2cc(C(F)(F)F)cc(C(F)(F)F)c2)C1 (stereo not shown) [Example 14b] | 0.021 µM | 81% | 0.143 µM | 88% |
| 0.019 µM | 0.217 µM | COc1cc(C(=O)N(C)CC(CCN(C)CCCc2c[nH]c3ccccc23)c2ccc(Cl)c(Cl)c2)cc(OC)c1OC (stereo not shown) [Example 7b] | – | – | – | – |
| 0.233 µM | 0.03 µM | COc1cc(C(=O)N(C)CC(CCN[C@@H](Cc2c[nH]c3ccccc23)C(=O)O)c2ccc(Cl)c(Cl)c2)cc(OC)c1OC (stereo partly shown) [Example 7d] | – | – | – | – |
| – | – | Cc1cc(C(=O)N(C)CC(CCN(C)CCc2c[nH]c3ccccc23)c2ccc(Cl)c(Cl)c2)cc(Cl)n1 (stereo not shown) [Example 12c] | 0.103 µM | 82% | 0.039 µM | 93% |
| – | – | COc1cc(C(=O)N(C)CC(CCN(C)CCc2c[nH]c3ccc(F)cc23)c2ccc(Cl)c(Cl)c2)cc(OC)c1OC (racemic) [Example 7c] | – | – | – | 100% |

Reference: patent US5691362A, “Substituted benzene-fused hetero- and carbocyclics as nuerokinin antagonists” (Schering-Plough Corporation, priority 1996, dated 1997)
